In patent publication US12209102B2, “Heterocyclic compounds and uses thereof” (Kumquat Biosciences Inc., priority 2022, dated 2025):

Key:
GP2D cells = assay: Ras cellular assay, growth of cells with K-Ras G12D mutation (CellTiter-Glo); type: cell-based; details: cell growth, Example 9, G12D mutation, read-out: IC50 against GP2D cells
SW620 cells = assay: Ras cellular assay, growth of cells with K-Ras G12V mutation (CellTiter-Glo); type: cell-based; details: Homo sapiens, SW-620; cell growth, Example 9, G12V mutation; read-out: IC50 against SW620 cells
Method in brief: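 IC50 values came from a four-parameter fit of CellTiter-Glo viability, read roughly 6 days after dosing with e.g. a 10-point threefold dilution series. G12V-mutant SW620 cells (e.g. 800 per well) had been plated the previous day in RPMI-1640/10% heat-inactivated FBS, on tissue culture-treated or ultra-low attachment plates.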

K-Ras G12D = target: T1, K-Ras G12D (Homo sapiens, UniProt P01116, G12D); assay: HTRF resonance energy transfer assay, K-Ras G12D / SOS1 interaction; type: biochemical; details: HTRF assay of Example 5; read-out: IC50 against K-Ras G12D
T1 construct: made in house; host or cells: E. coli BL21 (DE3)
Method in brief: (§1)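 Buffer about 5 mM HEPES pH 7.4 with ~150 mM NaCl, ~1 mM DTT, 0.05% BSA, 0.0025% (v/v) Igepal. Protein constructs used at molarity matching the IC50 range studied (e.g. ~500 nM). FRET between tagged K-Ras and hSOS1 measured after short incubation.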

K-Ras G12S = target: T2, K-Ras G12S (Homo sapiens, UniProt P01116, G12S); assay: HTRF resonance energy transfer assay, K-Ras G12S / SOS1 interaction; type: biochemical; details: HTRF assay of Example 5; read-out: IC50 against K-Ras G12S
T2 construct: made in house; host or cells: E. coli BL21 (DE3)
Method in brief: as §1

K-Ras G12V = target: T3, K-Ras G12V (Homo sapiens, UniProt P01116, G12V); assay: HTRF resonance energy transfer assay, K-Ras G12V / SOS1 interaction; type: biochemical; details: HTRF assay of Example 5; read-out: IC50 against K-Ras G12V
T3 construct: made in house; host or cells: E. coli BL21 (DE3)
Method in brief: as §1

K-Ras WT = target: T4, K-Ras WT (Homo sapiens, UniProt P01116); assay: HTRF resonance energy transfer assay, K-Ras WT / SOS1 interaction; type: biochemical; details: HTRF assay of Example 5; read-out: IC50 against K-Ras WT
T4 construct: made in house; host or cells: E. coli BL21 (DE3)
Method in brief: as §1

T4 sequence (P01116 1-188 isoform P01116-2): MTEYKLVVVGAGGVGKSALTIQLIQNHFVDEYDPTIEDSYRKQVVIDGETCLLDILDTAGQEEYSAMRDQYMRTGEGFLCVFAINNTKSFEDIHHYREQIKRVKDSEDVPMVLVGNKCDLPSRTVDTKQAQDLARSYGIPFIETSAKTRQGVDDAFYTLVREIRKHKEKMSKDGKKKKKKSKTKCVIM
T2 sequence (P01116 1-188 isoform P01116-2 G12S): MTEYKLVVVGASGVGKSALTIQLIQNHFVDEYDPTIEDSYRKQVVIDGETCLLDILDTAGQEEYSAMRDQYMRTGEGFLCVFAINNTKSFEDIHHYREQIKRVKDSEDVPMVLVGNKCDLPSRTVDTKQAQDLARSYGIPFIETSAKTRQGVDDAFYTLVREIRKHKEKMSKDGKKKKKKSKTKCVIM
T3 sequence (P01116 1-188 isoform P01116-2 G12V): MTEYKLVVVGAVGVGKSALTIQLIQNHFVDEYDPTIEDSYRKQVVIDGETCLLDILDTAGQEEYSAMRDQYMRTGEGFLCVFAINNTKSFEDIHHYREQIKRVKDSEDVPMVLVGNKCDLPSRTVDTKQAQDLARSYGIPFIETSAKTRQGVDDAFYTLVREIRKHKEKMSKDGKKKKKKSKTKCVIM
T1 sequence (P01116 1-188 isoform P01116-2 G12D): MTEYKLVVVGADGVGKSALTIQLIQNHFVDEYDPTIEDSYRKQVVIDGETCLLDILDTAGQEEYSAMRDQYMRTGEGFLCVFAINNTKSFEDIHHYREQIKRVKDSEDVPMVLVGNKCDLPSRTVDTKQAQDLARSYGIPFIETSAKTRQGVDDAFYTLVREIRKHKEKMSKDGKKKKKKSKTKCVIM

## C=C[C@H]1COc2c(Cl)c(-c3ccc(F)c4sc(N)c(C#N)c34)c(F)c3nc(OC[C@@]45CCCN4C[C@H](F)C5)nc(c23)N1CCC(F)F (single isomer, unassigned) [Compound 727]
GP2D cells
  IC50: < 500 nM
SW620 cells
  IC50: < 5 µM

## C#C[C@H]1COc2c(Cl)c(-c3ccc(F)c4sc(N)c(C#N)c34)c(F)c3nc(OC[C@@]45CCCN4C[C@H](F)C5)nc(c23)N1CC(F)F [Compound 730, 2-amino-4-((5S)-8-chloro-4-(2,2-difluoroethyl)-5-ethynyl-10-fluoro-2-(((2R,7aS)-2-fluorotetrahydro-1H-pyrrolizin-7a(5H)-yl)methoxy)-5,6-dihydro-4H-[1,4]oxazepino[5,6,7-de]quinazolin-9-yl)-7-fluorobenzo[b]thiophene-3-carbonitrile]
GP2D cells
  IC50: < 500 nM
SW620 cells
  IC50: < 5 µM

## C=C(C)[C@H]1COc2c(Cl)c(-c3ccc(F)c4sc(N)c(C#N)c34)c(F)c3nc(OC[C@@]45CCCN4C[C@H](F)C5)nc(c23)N1CC(F)F [Compound 879, 2-amino-4-((5S)-8-chloro-4-(2,2-difluoroethyl)-10-fluoro-2-(((2R,7aS)-2-fluorotetrahydro-1H-pyrrolizin-7a(5H)-yl)methoxy)-5-(prop-1-en-2-yl)-5,6-dihydro-4H-[1,4]oxazepino[5,6,7-de]quinazolin-9-yl)-7-fluorobenzo[b]thiophene-3-carbonitrile]
K-Ras G12D
  IC50: < 100 nM
K-Ras G12S
  IC50: < 100 nM
K-Ras G12V
  IC50: < 100 nM
K-Ras WT
  IC50: < 100 nM
GP2D cells
  IC50: < 500 nM

## CNCCN1CCOc2c(Cl)c(-c3ccc(F)c4sc(N)c(C#N)c34)c(F)c3nc(OC[C@@]45CCCN4C[C@H](F)C5)nc1c23 [Compound 961, 2-amino-4-(8-chloro-10-fluoro-2-(((2R,7aS)-2-fluorotetrahydro-1H-pyrrolizin-7a(5H)-yl)methoxy)-4-(2-(methylamino)ethyl)-5,6-dihydro-4H-[1,4]oxazepino[5,6,7-de]quinazolin-9-yl)-7-fluorobenzo[b]thiophene-3-carbonitrile]
K-Ras G12D
  IC50: < 100 nM
K-Ras G12S
  IC50: < 100 nM
K-Ras G12V
  IC50: < 100 nM
K-Ras WT
  IC50: < 100 nM
GP2D cells
  IC50: < 500 nM

## C[C@H]1COc2c(Cl)c(-c3ccc(F)c4sc(N)c(C#N)c34)c(F)c3nc(OC[C@@]45CCCN4C[C@H](F)C5)nc(c23)N1CC(F)F [Compound 1088, 2-amino-4-((5S)-8-chloro-4-(2,2-difluoroethyl)-10-fluoro-2-(((2R,7aS)-2-fluorotetrahydro-1H-pyrrolizin-7a(5H)-yl)methoxy)-5-methyl-5,6-dihydro-4H-[1,4]oxazepino[5,6,7-de]quinazolin-9-yl)-7-fluorobenzo[b]thiophene-3-carbonitrile]
K-Ras G12S
  IC50: < 100 nM
K-Ras G12V
  IC50: < 100 nM
K-Ras WT
  IC50: < 100 nM
GP2D cells
  IC50: < 500 nM
SW620 cells
  IC50: < 5 µM

## N#Cc1c(N)sc2c(F)ccc(-c3c(Cl)c4c5c(nc(OC[C@@]67CCCN6C[C@H](F)C7)nc5c3F)N(CC(F)F)[C@@H](C3CC3C#N)CO4)c12 (stereo partly drawn) [Compound 1109, 2-amino-4-((5S)-8-chloro-5-(2-cyanocyclopropyl)-4-(2,2-difluoroethyl)-10-fluoro-2-(((2R,7aS)-2-fluorotetrahydro-1H-pyrrolizin-7a(5H)-yl)methoxy)-5,6-dihydro-4H-[1,4]oxazepino[5,6,7-de]quinazolin-9-yl)-7-fluorobenzo[b]thiophene-3-carbonitrile]
GP2D cells
  IC50: < 500 nM
SW620 cells
  IC50: < 5 µM

## N#Cc1c(N)sc2c(F)ccc(-c3c(Cl)c4c5c(nc(OC[C@@]67CCCN6C[C@H](F)C7)nc5c3F)N([C@@H]3CCNC3)CCO4)c12 [Compound 1124, 2-amino-4-(8-chloro-10-fluoro-2-(((2R,7aS)-2-fluorotetrahydro-1H-pyrrolizin-7a(5H)-yl)methoxy)-4-((R)-pyrrolidin-3-yl)-5,6-dihydro-4H-[1,4]oxazepino[5,6,7-de]quinazolin-9-yl)-7-fluorobenzo[b]thiophene-3-carbonitrile]
K-Ras G12D
  IC50: < 100 nM
K-Ras G12S
  IC50: < 100 nM
K-Ras G12V
  IC50: < 100 nM
K-Ras WT
  IC50: < 100 nM
GP2D cells
  IC50: < 500 nM
